Reference: patent US9062095B2, “Mutant double cyclized receptor peptides inhibiting β1-adrenoceptor antibodies” (JULIUS-MAXIMILIANS-UNIVERSTITAT-WURZBURG, priority 2007, dated 2015)
Each block holds one substance with its values, some of them ahead of it. Positions of bridges follow the written chain, without caps; N, C: chain ends. Non-standard residues stand in square brackets, D forms with d.

Columns and labels:
[1] = tested on: beta1-receptor antibodies; assay: in vivo prevention study: five prophylactic peptide applications, serum antibody-titers by ELISA; set-up: species or system rat; conditions: 1.0 mg/kg body weight i.v., 4-weekly, prevention protocol (FIG. 12)
Protocol: FIG. 12 is a diagram resuming the in vivo blocking capacity of in total five (prophylatic) applications of various linear and cyclic beta1-ECII-peptides, started 3 months after the first immunization (and two subsequent beta1-ECII/GST-antigen-boosts, corresponding to a prevention protocol). Serum-titers of the beta1-receptor antibodies were determined before and 18-20 h after each peptide injection (abscissa, time in months) and are given in % of the corresponding antibody-titers of immunized untreated rats (y-axis, ordinate). The injected peptides were: 25AA Cys/Cys linear peptide (black squares), […] (white squares), 18AA Cys/Cys cyclopeptide (black diamond), 18AA Cys/Ser cyclopeptide mutant (white diamonds), and the 18AA Cys/Ser linear peptide mutant (vertically hatched diamonds). […] Black circles indicate antibody-titers of untreated regularly (every 4 weeks) immunized animals serving as reference, set at 100%.
The in-vivo blocking effects of both 25AA and 18AA Cys/Ser mutant cyclopeptides (with a Gln closure site), the 18AA Ser/Cys mutant cyclopeptide, and a mutated linear 18AA Cys/Ser peptide were analyzed after intravenous (i.v.) injection of 1.0 mg/kg body weight (Bw) of each construct into freshly immunized antibody-positive rats (i.e., use of cyclo-peptides in a kind of “prevention” study), with a first cyclopeptide-application 3 months after the initial immunization (and two subsequent boost at months 2 and 3). In total, five prophylactic applications of the various constructs were given at 4-weekly intervals, always two weeks after the monthly continued antigen boost. Sera were drawn 18-20 hours after i.v. injection and assayed for reactivity by ELISA using the 3 Cys-containing linear 25AA Cys/Cys-peptide as an antigen (FIG. 12).

[2] = tested on: anti-beta1-ECII antibody-secreting cells (ASC); assay: ELISPOT-assay with B-cells from bone marrow or spleen of prophylactically treated rats; type: in vivo, rat; conditions: prophylactically treated versus untreated immunized rats, n=3-4 (FIG. 13)
Protocol: Cys/Ser, horizontally hatched columns). For the assays, ELIspot plates were coated overnight with the specific antigen (GST/beta1-ECII-FP) in 0.05 mol/1 Tris buffer, pH 9.4.; then the plates were washed 3 times and blocked with BSA for 3 hours at 37° C. Subsequently, the plates were incubated overnight at 37° C. with B-cells from either spleen or bone marrow (cultured in RPMI 1640/X-VIVO-15 medium supplemented with 10% fetal calf serum (FCS)) with 1×10^6 to 1×10^3 cells per well. After 12 hours the B-cells were discarded and the plates with the B-cell secreted IgG bound were washed several times (PBS/0.5° A) Tween) before the addition of alkaline phos-phatase conjugated secondary anti-rat IgG (0.3 μg/ml) to detect bound rat IgG. Then the plates were incubated for another 3 hours at 37° C., washed several times with PBS/0.5% Tween, and developed using LMP/BICP 5:1 (1 ml per well; “LMP” means low melting agarose, and “BICP” means 5-bromo-4-chloro-3-indolyl phosphate p-toluidine salt, a blue-colored dye) allowing for a quantification of the blue spots obtained, with each spot representing an antigen-specific IgG secreting spleen or bone-marrow cell.
This finding was confirmed by ELIspot analysis of bone marrow and spleen cell preparations of selected cyclopeptide-treated versus untreated immunized rats (n=3).

anti-β1-ECII antibodies = assay: ELISA-competition assay: peptide preincubated with sera/IgG of immunized antibody-positive rats, linear 25AA Cys/Cys-peptide as antigen; type: binding, rat; set-up: blocking capacity (% of blocked versus non-blocked ELISA-reactivity): concentration or dose not given beside the values; conditions: for blocking capacity (% of blocked versus non-blocked ELISA-reactivity): IgG from n=78 immunized antibody-positive rats, preincubation 12 h, mutants with D-Glu ring closure (FIG. 7); for blocking capacity (% of blocked versus non-blocked ELISA-reactivity) / blocking efficiency (% of blocked versus non-blocked ELISA reactivity) / blocking capacity (% of blocked versus non-blocked ELISA reactivity): ±SEM; for blocking efficiency (% of blocked versus non-blocked ELISA reactivity): type1 sera (93%, n=64 of 69), FIG. 9 upper panel; for blocking capacity (% of blocked versus non-blocked ELISA reactivity): type 2 sera (7%, n=5 of 69), FIG. 9 lower panel; for decrease in circulating free anti-beta1-ECII antibodies: n=6 sera (FIG. 11); for ability to significantly block antibody-binding to the β1-ECII-antigen: IgG-fractions from 12 rats, 18AA mutants with D-Glu ring closure (FIG. 4); for fraction of rat sera blocked by the peptide: n=82 sera, D-Glu ring closure (FIG. 8), Cys/Ser = blocked by it alone, Ser/Cys = sera blocked by both mutants
Protocol: FIG. 9 is a diagram composed of two major-(upper and lower) panels resuming the blocking effect of both 25AA- and 18AA-cyclopeptide mutants having a Gln closure site, as well as 18AA cyclopeptide mutants having a D-Glu closure site after preincubation (12 h, 4° C., rotating incubation) with sera isolated from 69 different immunized antibody-positive rats in an ELISA-competition assay using the 3 Cys-containing linear 25AA Cys/Cys-peptide as an antigen. The upper panel depicts rat sera preferentially reacting with the Cys/Ser mutated cyclopeptides (type1 reaction, n=64), separated in cyc25AA(Gln)-peptides (left) and cyc18AA(Gln and D-Glu)-peptides (right). The lower panel depicts the rat sera reacting with both the Cys/Ser and the Ser/Cys mutated cyclopeptides (type2 reaction, n=5), again separated in the results obtained with cyc25AA(Gln)-peptides (left) and cyc18AA(Gln and D-Glu)-peptides (right).
FIG. 11 is a diagram resuming the dose-dependent (x-axis, abscissa: fold molar excess of specific peptides) blocking capacity of various linear and cyclic beta1-ECII-peptides given in % of the unblocked antibody-titer (y-axis, ordinate), including 25AA Cys/Cys linear peptides (black squares), 25AA Cys/Ser cyclopeptide mutants (white squares), 18AA Cys/Cys cyclo-peptides (black diamonds), 18AA Cys/Ser cyclopeptide mutants (white diamonds), and 18AA Cys/Ser linear peptide mutants (vertically hatched diamonds) in an ELISA competition assay performed with sera from n=6 randomly chosen immunized antibody-positive rats.
FIGS. 27A and B depict the in vitro blocking (=neutralization) capacity of various cysteine-containing cyclopeptide variants of the second extracellular loop (ECII) of the human beta1-adrenergic receptor, determined by testing n=6 individual sera (27A) of immunized beta1-ECII-antibody-positive rats after over-night incubation with the indicated cyclopeptides (12-14 h, 4° C.) by ELISA. Columns in 27A represent the receptor-antibody blocking efficiency of the indicated cyclopeptides in % of the antibody-(ELISA-)signals obtained with unblocked antibody-positive rat sera. Columns in 27B represent the mean blocking efficiency for each cyclopeptide, error bars indicate ±SEM.
The blocking capacity of β1-ECII-18AA cyclopeptide mutants (Cys13-Ser14 or Ser13-Cys14 mutation having an additional D-Glu-Gln exchange, e.g. at the ring closure site) was compared with the 3 Cys-containing 25AA or 18AA Cys/Cys cyclopeptides after preincubation (12 h, 4° C., rotating incubation over-night) of different numbers of sera from immunized antibody-positive rats in an ELISA-competition assay using the 3 Cys-containing linear 25AA Cys/Cys-peptide as an antigen. FIGS. 4, 5, and 7-10 show the results from measurements performed with sera of n=12 up to n=82 immunized antibody-positive rats using different cyclopeptides of the present invention.

[3] = tested on: antibody-induced cellular cAMP-production of HEK 293-β1 cells (β1-receptor-mediated signalling); assay: functional cAMP-assay by fluorescence resonance energy transfer (FRET); type: cell-based, human; conditions: anti-β1-ECII IgG of a representative rat, preincubation 12 h, 4° C. (FIG. 6)
Protocol: FIG. 6 is a diagram depicting the blocking capacity of β1-ECII-18AA cyclopeptide mutants having a D-Glu ring closure on β1-receptor-mediated signalling (functional cAMP-assay) using an approach by fluorescence resonance energy transfer (FRET). The effect of the preincubation (12 h, 4° C., rotating incubator) of anti-β1-ECII IgG antibodies of a representative rat (serum) (FIG. 4, rat number 4) with β1-ECII-18AA-cyclopeptide mutants (Cys/Ser mutation, dark blue (3); Ser/Cys mutation, light blue (4)) was compared with the effect of a 3 Cys-containing 25AA Cys/Cys cyclopeptide (red (2)) or the result obtained with anti-β1-ECII IgG antibodies in the absence of blocking peptides (black (1)). The y-axis represents the normalized YFP/CFP-ratio of the registered FRET emission signals, the x-axis corresponds to the registration time given in seconds (s).
The blocking capacity of β1-ECII 25AA or 18AA cyclopeptide mutants (having a D-Glu/Gln at the ring closure site or not) on β1-receptor-mediated signalling (functional cAMP-assay) was assayed using an approach by fluorescence resonance energy transfer (FRET) (FIG. 6).
The effect of the pre-incubation (12 h, 4° C., rotating incubator) of anti-β1-ECII IgG antibodies of a representative rat with β1-ECII-18AA cyclopeptide mutants (Cys/Ser or Ser/Cys mutations, respectively) was compared with the inhibitory effect of a 3 Cys-containing 25AA Cys/Cys cyclopeptide or with the effect of anti-β1-ECII IgG antibodies not incubated with blocking peptides. The normalized YFP/CFP-ratio of the registered FRET emission signals served to quantify the effect of the cyclopeptide mutants of the present invention in terms of blockade (in percent) of antibody-induced cellular cAMP-production of transiently Epac1-transfected stably β1-AR expressing human embryonic kidney cells (HEK 293-β1 cells). The x-axis in FIG. 6 corresponds to the registration time given in seconds (s).

Substance: 25AA Cys/Cys cyclopeptides: 3 Cys-containing β1-ECII-25AA Cys/Cys cyclopeptide (β1-ECII-CP of WO 2006/103101) (cyclo(ARAESDEARRCYNDPKCCDFVTNRQ); disulfide (positions not given here)) [reference compound]
antibody-titer decrease after 5 injections, compared with untreated immunized animals [1]: 87.7±2%
number of specific anti-beta1-ECII antibody-secreting cells (ASC) in spleen and bone marrow [2]: significant decrease
blocking capacity (% of blocked versus non-blocked ELISA-reactivity) (anti-β1-ECII antibodies; 4° C.): 67±2%
blocking-efficiency versus unblocked sera (anti-β1-ECII antibodies; n=6 sera, incubation 12-14 h, 4° C., mean ±SEM (FIG. 27)): 73.4±5.0%
blocking efficiency (% of blocked versus non-blocked ELISA reactivity) (anti-β1-ECII antibodies): 65±2%
blocking capacity (% of blocked versus non-blocked ELISA reactivity) (anti-β1-ECII antibodies): 72±5%

Substance: Ala-Asp-Glu-Ala-Arg-Arg-Cys-Tyr-Asn-Asp-Pro-Lys-Cys-Ser-Asp-Phe-Val-Gln (cyclo(ADEARRCYNDPKCSDFVQ); disulfide 7-13 (inferred)) [linear 18AA Cys/Ser peptides, reference compound]
antibody-titer decrease after 5 injections, compared with untreated immunized animals [1]: 4.5±11%
number of specific anti-beta1-ECII antibody-secreting cells (ASC) in spleen and bone marrow [2]: no effect
decrease in circulating free anti-beta1-ECII antibodies (anti-β1-ECII antibodies; 8-fold molar excess of peptide): 24%
decrease in circulating free anti-beta1-ECII antibodies (anti-β1-ECII antibodies; 20-fold molar excess of peptide): 35%
decrease in circulating free anti-beta1-ECII antibodies (anti-β1-ECII antibodies; 80-fold molar excess of peptide): about 50%

Substance: cyclo(Ala-Arg-Ala-Glu-Ser-Asp-Glu-Ala-Arg-Arg-Cys-Tyr-Asn-Asp-Pro-Lys-Ser-Cys-Asp-Phe-Val-Thr-Asn-Arg-Gln) (cyclo(ARAESDEARRCYNDPKSCDFVTNRQ); disulfide 11-18 (inferred)) [25AA Ser/Cys]
inhibition of functional antibody-effects (blocking intracellular cAMP-increases) [3]: almost no inhibitory effect
blocking capacity (% of blocked versus non-blocked ELISA-reactivity) (anti-β1-ECII antibodies; 4° C.): 6±2%
blocking efficiency (% of blocked versus non-blocked ELISA reactivity) (anti-β1-ECII antibodies): 6±2%
blocking capacity (% of blocked versus non-blocked ELISA reactivity) (anti-β1-ECII antibodies): 37±7%

ability to significantly block antibody-binding to the β1-ECII-antigen (anti-β1-ECII antibodies): able to significantly block
blocking of receptor antibodies versus Ser/Cys counterpart or linear 25AA Cys/Cys peptide (anti-β1-ECII antibodies; dose-titration, two to eight-fold molar excess, one representative serum (FIG. 5)): consistently largely superior
Substance: cyclo(Ala-Asp-Glu-Ala-Arg-Arg-Cys-Tyr-Asn-Asp-Pro-Lys-Cys-Ser-Asp-Phe-Val-DGlu) (cyclo(ADEARRCYNDPKCSDFV[dE]); disulfide 7-13 (inferred))
inhibition of functional antibody-effects (blocking intracellular cAMP-increases) [3]: largely superior to its Ser/Cys counterpart, and even slightly more effective than a 3 Cys-containing 25AA Cys/Cys cyclopeptide
blocking capacity (% of blocked versus non-blocked ELISA-reactivity) (anti-β1-ECII antibodies; 4° C.): 69±2%
blocking effect compared with the 3 Cys-containing β1-ECII-18AA Cys/Cys cyclopeptide (anti-β1-ECII antibodies; IgG-fractions from 12 rats (FIG. 4)): comparable or (in more than half of the sera analyzed n=8/12) was even more effective
fraction of rat sera blocked by the peptide (anti-β1-ECII antibodies; listed as ECII-18AA Cys/Ser mutant): > 95%
fraction of rat sera blocked by the peptide (anti-β1-ECII antibodies; listed as β1-ECII-18AA Cys/Ser mutated cyclopeptide (D-Glu ring closure)): About 95%
blocking efficiency (% of blocked versus non-blocked ELISA reactivity) (anti-β1-ECII antibodies): 69±2%
blocking capacity (% of blocked versus non-blocked ELISA reactivity) (anti-β1-ECII antibodies): 47±5%

ability to significantly block antibody-binding to the β1-ECII-antigen (anti-β1-ECII antibodies): not
Substance: cyclo(Ala-Asp-Glu-Ala-Arg-Arg-Cys-Tyr-Asn-Asp-Pro-Lys-Ser-Cys-Asp-Phe-Val-DGlu) (cyclo(ADEARRCYNDPKSCDFV[dE]); disulfide 7-14 (inferred)) [18AA Ser/Cys with D-Glu-closure]
inhibition of functional antibody-effects (blocking intracellular cAMP-increases) [3]: almost no inhibitory effect
blocking capacity (% of blocked versus non-blocked ELISA-reactivity) (anti-β1-ECII antibodies; 4° C.): 1±2%
fraction of rat sera blocked by the peptide (anti-β1-ECII antibodies; listed as 18AA Ser/Cys-mutants): about 5%
fraction of rat sera blocked by the peptide (anti-β1-ECII antibodies; listed as cyclic ECII-18AA Ser/Cys mutants): < 5%
blocking efficiency (% of blocked versus non-blocked ELISA reactivity) (anti-β1-ECII antibodies): 1±2%
blocking capacity (% of blocked versus non-blocked ELISA reactivity) (anti-β1-ECII antibodies): 33±5%
